The record followed here is ChEMBL document CHEMBL5465560, “Selectivity Literature for EUbOPEN Chemogenomic Library” (2024).

Test [1] addresses Casein kinase II subunit alpha (Homo sapiens, UniProt P68400). In words: Selectivity interaction (Kinase panel (Z-LYTE Assay)) EUB0001632a CSNK2A1. The following applies: at 10 µM.
For test [2], the target named is Mitogen-activated protein kinase 3 (Homo sapiens, UniProt P27361). In words: Selectivity interaction (Kinase panel (Z-LYTE Assay)) EUB0001632a MAPK3. As to conditions: at 10 µM.
Test [3] deals with T1, NUAK family SNF1-like kinase 1 (Homo sapiens) (UniProt O60285).
T1 sequence (whole entry): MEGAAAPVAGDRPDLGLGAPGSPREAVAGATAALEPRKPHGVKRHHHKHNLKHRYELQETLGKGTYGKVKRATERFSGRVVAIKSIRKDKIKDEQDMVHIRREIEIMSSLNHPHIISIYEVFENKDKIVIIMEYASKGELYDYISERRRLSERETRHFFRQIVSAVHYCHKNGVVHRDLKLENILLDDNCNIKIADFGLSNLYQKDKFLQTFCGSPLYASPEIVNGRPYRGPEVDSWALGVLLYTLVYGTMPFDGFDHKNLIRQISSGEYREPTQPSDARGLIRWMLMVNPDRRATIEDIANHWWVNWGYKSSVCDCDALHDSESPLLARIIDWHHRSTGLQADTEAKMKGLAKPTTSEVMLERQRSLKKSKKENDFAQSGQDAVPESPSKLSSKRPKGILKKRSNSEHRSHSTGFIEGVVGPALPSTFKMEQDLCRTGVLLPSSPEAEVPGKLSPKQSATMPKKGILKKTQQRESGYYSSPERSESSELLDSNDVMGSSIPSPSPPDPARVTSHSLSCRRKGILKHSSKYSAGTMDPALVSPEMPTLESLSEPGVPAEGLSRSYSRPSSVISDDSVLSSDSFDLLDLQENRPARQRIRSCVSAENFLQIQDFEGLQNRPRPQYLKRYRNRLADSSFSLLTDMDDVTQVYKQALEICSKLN
Kind of test: Selectivity interaction (KinomeScan (DiscoverX)) EUB0001619a NUAK1. As to conditions: at 1 µM.

Test [4] has as its target T2, TGF-beta receptor type-1 (Homo sapiens) (UniProt P36897).
T2 sequence (whole entry): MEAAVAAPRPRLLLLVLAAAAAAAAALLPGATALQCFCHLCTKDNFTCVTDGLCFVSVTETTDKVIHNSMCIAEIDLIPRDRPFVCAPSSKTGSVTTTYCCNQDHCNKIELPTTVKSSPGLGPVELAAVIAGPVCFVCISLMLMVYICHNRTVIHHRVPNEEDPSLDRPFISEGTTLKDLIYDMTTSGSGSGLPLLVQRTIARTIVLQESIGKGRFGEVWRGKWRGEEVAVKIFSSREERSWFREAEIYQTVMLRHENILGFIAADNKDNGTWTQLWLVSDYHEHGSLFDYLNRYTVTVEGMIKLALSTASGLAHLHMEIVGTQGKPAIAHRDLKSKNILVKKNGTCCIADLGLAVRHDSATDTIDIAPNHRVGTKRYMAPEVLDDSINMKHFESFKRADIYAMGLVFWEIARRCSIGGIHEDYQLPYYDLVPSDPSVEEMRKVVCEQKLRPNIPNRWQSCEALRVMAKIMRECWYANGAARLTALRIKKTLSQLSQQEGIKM
The following applies: at 10 µM.

Test [5] can be described thus: Selectivity interaction (KinomeScan (DiscoverX)) EUB0000695a PKNB. As to conditions: at 100 nM.
Test [6] has as its system Tyrosine-protein kinase ABL1 (Homo sapiens), P00519 [F317I]. The following applies: at 10 µM.
In test [7] the target is Calcium/calmodulin-dependent protein kinase type II subunit alpha (Homo sapiens, UniProt Q9UQM7). In words: Selectivity interaction (Kinase screening (Upstate/Millipore)) EUB0000604a CAMK2A.
For test [8], the target named is Dual specificity tyrosine-phosphorylation-regulated kinase 1B (Homo sapiens, UniProt Q9Y463). Kind of test: Selectivity interaction (Kinase panel (Invitrogen)) EUB0000639a DYRK1B. The following applies: at 200 nM.
In test [9] the target is T3, cAMP-dependent protein kinase catalytic subunit PRKX (Homo sapiens) (UniProt P51817).
T3 sequence (whole entry): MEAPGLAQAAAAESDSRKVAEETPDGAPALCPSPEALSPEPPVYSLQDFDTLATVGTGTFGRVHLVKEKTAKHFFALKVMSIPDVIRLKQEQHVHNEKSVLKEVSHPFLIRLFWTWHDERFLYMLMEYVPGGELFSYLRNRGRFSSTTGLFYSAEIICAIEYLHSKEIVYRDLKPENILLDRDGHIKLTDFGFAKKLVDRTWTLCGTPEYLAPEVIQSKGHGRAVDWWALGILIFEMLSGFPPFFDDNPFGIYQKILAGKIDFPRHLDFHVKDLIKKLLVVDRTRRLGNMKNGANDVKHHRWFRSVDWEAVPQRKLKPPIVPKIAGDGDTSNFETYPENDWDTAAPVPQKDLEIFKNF
Kind of test: Selectivity interaction (Ambit KINOMEscan and KiNATiv profiling in Jurkat cells) EUB0000090b PRKX. In kind it is cell-based. The following applies: at 1 µM.

The target of test [10] is Serine/threonine-protein kinase 38-like (Homo sapiens) (UniProt Q9Y2H1). In words: Selectivity interaction (KinomeScan (DiscoverX)) EUB0000618a STK38L. As to conditions: at 10 µM.
The target of test [11] is Serine/threonine-protein kinase NIM1 (Homo sapiens, UniProt Q8IY84). Kind of test: Selectivity interaction (KinomeScan (DiscoverX)) EUB0000092b NIM1K. The following applies: at 10 µM.
In test [12] the target is T4, Serine/threonine-protein kinase ULK3 (Homo sapiens) (UniProt Q6PHR2).
T4 sequence (whole entry): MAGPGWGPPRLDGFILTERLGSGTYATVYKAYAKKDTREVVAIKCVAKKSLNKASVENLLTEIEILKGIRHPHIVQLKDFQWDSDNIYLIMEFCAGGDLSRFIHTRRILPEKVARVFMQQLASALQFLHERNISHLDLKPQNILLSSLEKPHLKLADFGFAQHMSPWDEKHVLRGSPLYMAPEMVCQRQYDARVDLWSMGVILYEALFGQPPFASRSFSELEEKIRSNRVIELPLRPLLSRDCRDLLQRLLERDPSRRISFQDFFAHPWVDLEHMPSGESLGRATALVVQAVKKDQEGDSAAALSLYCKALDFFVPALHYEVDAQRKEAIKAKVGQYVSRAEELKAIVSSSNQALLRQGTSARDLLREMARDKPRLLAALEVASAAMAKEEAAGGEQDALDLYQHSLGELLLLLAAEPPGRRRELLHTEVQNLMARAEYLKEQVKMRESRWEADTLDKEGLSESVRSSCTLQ
Kind of test: Selectivity interaction (KinomeScan (DiscoverX)) EUB0000092b ULK3. The following applies: at 10 µM.

Test [13] deals with BDNF/NT-3 growth factors receptor (Homo sapiens) (UniProt Q16620). In words: Selectivity interaction (KinomeScan (DiscoverX)) EUB0001079a NTRK2. The following applies: at 1 µM.
Chain of BDNF/NT-3 growth factors receptor (Homo sapiens) (Q16620 32-822 limits assumed): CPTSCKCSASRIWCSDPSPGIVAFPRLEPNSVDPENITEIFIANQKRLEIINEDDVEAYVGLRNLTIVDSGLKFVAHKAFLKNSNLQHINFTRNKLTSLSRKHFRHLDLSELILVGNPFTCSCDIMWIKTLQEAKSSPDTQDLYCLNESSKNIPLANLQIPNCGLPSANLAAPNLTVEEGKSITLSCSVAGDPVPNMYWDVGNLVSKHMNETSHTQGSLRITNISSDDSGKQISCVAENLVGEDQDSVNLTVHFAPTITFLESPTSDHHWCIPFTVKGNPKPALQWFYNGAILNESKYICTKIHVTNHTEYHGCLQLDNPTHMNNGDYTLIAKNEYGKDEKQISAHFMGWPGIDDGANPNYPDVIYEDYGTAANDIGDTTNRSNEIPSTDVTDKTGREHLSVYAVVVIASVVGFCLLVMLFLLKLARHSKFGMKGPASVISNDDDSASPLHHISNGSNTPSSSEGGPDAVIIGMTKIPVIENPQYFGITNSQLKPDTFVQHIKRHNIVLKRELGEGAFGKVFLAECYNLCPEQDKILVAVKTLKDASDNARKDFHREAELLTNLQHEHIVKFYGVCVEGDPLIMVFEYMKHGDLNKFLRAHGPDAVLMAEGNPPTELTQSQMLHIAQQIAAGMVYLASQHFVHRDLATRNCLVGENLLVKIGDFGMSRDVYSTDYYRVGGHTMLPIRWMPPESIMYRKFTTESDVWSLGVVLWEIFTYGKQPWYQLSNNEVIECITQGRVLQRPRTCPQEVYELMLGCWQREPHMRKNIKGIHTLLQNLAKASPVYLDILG

Chain of Mitogen-activated protein kinase 3 (P27361 whole entry): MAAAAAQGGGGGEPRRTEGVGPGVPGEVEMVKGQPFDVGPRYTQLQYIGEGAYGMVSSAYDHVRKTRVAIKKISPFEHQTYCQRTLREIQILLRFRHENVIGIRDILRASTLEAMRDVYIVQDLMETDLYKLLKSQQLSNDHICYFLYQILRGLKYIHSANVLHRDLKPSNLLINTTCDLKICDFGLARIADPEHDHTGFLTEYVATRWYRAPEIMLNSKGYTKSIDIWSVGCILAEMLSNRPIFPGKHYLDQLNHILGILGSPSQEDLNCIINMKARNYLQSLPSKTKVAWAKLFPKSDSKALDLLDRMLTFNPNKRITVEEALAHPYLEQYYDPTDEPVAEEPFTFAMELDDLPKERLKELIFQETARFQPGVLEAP
Chain of Calcium/calmodulin-dependent protein kinase type II subunit alpha (Q9UQM7 whole entry): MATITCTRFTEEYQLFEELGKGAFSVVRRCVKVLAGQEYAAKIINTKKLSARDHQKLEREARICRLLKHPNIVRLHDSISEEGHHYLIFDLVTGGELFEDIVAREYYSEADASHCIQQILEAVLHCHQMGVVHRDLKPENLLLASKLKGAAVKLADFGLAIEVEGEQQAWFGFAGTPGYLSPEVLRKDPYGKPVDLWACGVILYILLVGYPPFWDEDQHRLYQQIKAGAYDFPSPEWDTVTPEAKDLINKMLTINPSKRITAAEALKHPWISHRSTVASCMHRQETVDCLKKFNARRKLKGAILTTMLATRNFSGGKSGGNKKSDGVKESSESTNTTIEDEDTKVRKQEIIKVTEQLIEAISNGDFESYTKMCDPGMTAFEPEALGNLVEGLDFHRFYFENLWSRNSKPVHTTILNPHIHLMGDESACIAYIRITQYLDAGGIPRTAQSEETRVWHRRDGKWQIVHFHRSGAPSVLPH
Chain of Serine/threonine-protein kinase NIM1 (Q8IY84 whole entry): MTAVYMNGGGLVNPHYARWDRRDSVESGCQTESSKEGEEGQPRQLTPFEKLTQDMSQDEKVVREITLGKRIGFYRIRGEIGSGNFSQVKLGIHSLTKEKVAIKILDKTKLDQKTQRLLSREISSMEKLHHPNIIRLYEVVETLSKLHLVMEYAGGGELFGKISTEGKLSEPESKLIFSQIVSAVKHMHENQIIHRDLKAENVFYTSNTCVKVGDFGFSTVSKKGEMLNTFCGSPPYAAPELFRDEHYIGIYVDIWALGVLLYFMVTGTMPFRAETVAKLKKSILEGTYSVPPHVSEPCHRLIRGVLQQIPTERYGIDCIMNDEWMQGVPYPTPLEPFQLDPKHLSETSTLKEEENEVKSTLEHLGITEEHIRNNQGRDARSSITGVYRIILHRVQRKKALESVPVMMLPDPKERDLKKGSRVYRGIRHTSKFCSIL
Chain of Serine/threonine-protein kinase 38-like (Homo sapiens) (Q9Y2H1 2-464 limits assumed): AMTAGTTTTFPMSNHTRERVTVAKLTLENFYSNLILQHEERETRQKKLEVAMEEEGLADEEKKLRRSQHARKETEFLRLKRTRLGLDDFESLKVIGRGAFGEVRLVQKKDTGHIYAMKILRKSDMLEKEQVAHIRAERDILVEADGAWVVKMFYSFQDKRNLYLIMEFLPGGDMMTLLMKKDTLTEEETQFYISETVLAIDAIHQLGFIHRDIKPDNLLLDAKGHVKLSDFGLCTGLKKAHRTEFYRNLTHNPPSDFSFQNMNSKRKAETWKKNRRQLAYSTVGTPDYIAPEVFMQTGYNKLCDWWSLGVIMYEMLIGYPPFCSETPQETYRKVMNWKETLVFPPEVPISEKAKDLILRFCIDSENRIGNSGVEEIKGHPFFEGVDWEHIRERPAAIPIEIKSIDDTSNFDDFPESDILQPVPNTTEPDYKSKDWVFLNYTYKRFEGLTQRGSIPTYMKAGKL
Chain of Dual specificity tyrosine-phosphorylation-regulated kinase 1B (Q9Y463 whole entry, looked up): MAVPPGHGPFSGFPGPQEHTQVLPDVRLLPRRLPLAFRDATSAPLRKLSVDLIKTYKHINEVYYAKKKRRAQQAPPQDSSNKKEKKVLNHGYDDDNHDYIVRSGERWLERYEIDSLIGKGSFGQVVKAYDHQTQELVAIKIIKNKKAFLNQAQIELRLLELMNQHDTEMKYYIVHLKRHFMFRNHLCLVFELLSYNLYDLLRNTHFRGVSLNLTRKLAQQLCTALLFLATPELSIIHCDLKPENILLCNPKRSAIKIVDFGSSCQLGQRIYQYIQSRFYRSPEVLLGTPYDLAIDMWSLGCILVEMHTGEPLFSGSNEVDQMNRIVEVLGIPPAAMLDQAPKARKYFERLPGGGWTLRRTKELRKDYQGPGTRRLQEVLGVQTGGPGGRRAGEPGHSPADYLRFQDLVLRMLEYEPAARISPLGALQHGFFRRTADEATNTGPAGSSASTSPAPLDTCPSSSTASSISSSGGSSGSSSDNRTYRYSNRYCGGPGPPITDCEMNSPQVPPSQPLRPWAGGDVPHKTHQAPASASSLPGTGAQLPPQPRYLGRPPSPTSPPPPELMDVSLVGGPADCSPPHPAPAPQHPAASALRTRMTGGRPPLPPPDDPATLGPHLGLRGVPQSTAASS
Chain of Tyrosine-protein kinase ABL1 (Homo sapiens), P00519 [F317I] (P00519 whole entry F317I): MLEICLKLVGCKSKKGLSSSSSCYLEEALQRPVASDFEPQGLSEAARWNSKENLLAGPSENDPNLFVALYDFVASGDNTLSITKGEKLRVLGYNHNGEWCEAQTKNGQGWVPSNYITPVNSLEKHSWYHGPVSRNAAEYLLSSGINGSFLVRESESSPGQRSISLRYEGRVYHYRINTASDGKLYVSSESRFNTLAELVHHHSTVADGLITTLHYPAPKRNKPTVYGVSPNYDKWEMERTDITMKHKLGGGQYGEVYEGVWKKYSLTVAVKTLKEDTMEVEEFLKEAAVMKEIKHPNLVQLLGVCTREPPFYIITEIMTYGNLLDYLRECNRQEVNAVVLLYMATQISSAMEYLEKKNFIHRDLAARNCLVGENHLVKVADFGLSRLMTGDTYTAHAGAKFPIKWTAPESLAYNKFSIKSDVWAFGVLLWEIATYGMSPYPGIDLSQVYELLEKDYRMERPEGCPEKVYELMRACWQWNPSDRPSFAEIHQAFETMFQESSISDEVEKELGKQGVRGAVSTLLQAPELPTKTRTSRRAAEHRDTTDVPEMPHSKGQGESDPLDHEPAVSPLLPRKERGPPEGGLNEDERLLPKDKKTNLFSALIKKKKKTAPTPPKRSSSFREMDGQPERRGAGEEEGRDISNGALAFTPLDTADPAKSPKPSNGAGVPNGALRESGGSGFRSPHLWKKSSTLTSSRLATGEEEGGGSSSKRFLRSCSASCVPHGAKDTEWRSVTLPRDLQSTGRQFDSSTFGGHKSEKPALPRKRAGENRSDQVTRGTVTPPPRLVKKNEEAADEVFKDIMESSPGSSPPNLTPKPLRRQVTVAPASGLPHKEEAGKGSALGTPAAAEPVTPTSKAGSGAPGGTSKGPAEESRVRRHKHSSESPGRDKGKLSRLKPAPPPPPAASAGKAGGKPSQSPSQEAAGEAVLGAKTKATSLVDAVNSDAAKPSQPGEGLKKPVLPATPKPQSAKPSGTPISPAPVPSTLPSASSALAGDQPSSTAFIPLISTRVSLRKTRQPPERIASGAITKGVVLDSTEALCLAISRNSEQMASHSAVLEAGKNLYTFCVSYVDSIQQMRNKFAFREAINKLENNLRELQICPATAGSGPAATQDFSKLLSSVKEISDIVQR
Chain of Casein kinase II subunit alpha (P68400 whole entry, looked up): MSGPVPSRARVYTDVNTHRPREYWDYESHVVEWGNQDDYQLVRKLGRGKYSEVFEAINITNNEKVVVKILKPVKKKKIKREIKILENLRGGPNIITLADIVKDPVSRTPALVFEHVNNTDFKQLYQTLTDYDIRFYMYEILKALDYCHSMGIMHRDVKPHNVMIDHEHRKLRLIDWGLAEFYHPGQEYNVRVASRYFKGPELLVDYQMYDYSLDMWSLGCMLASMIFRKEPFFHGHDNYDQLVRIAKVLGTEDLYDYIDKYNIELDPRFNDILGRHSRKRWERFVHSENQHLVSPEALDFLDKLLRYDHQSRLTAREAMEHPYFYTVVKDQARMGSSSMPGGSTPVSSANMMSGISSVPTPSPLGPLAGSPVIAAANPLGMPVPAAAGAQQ

On to `Cn1cc(-n2cnc3c(NCc4nc5cc(Cl)c(Cl)cc5[nH]4)nc(N4CCOCC4)nc32)cn1`, for which the % of control in test [1] was -3.76%; in test [2] it was -1.61%.
As to `N#Cc1cccc(-c2c[nH]c3ncnc(N4CCOCC4)c23)c1`, the % of control in test [3] worked out at 71%.
Take `CCN(CC)CCCCNc1ncc2cc(-c3cc(OC)cc(OC)c3)c(NC(=O)NC(C)(C)C)nc2n1`: the % of control in [4] stood at 100%.
With `Cc1cc(F)c(C(=O)Nc2cccc(-c3nncn3C(C)C)n2)cc1-n1cnc(C2CC2)c1`, the % of control in test [5] was 100%.
As for `Cc1cc([C@@H](C)Nc2ccccc2C(=O)O)c2nc(N3CCOCC3)cc(=O)n2c1` [AZD-6482], the % of control in test [6] is 100%.
For the compound `Cc1cnc(Nc2ccc(F)cc2Cl)nc1-c1c[nH]c(C(=O)N[C@H](CO)c2cccc(Cl)c2)c1`, in [7], the % of inhibition was 1%.
In the case of `CC[C@@H]1[C@H](F)C(=O)N[C@@H]1COc1nccc2cc(C(N)=O)c(OC)cc12` [ZIMLOVISERTIB], the % of inhibition in test [8] was found to be 16.5%.
For the compound `CN(C)C/C=C/C(=O)Nc1ccc(C(=O)N2CCCC(Nc3ncc(Cl)c(-c4c[nH]c5ccccc45)n3)C2)cc1` (stereo not drawn), in [9], the % of control was found to be 89%.
As for `O[C@H]1CC[C@H](Nc2ncc3nc(Nc4c(F)cc(F)cc4F)n([C@H]4CCOC4)c3n2)CC1`, the % of control in test [10] is 100%.
`CCC(=O)N1CCN(c2ccc(-n3c(=O)ccc4cnc5ccc(-c6cnc7ccccc7c6)cc5c43)cc2C(F)(F)F)CC1`: the % of control in [11] worked out at 84%; in test [12], 100%.
Take `Nc1cnc(N2CCc3cc(S(=O)(=O)Nc4c(F)cc(Cl)cc4F)cc(N4CCCC4=O)c32)nc1` [TP-020n]: the % of control in test [13] turned out to be 100%.
